Results on one molecule are retold here after PMC3165048 (Chemistry & biology, 2010).

≈ marks a conversion by molar mass, not a printed value.

For assay [1], the target named is MtMetAP1c (Mycobacterium tuberculosis, UniProt P9WK18). Put plainly: biochemical. The note with it: […] CoCl2, 600 µM Met-Pro-pNA, 20 min pre-incubation.
The target in assay [2] is MtMetAP1a (Mycobacterium tuberculosis, UniProt P9WK20). Briefly: Coupled methionine-proline aminopeptidase enzymatic assay. The assay is classed as biochemical. The note with it: […] CoCl2, 600 µM Met-Pro-pNA, 20 min pre-incubation.
Chain of MtMetAP1a (P9WK20 whole entry): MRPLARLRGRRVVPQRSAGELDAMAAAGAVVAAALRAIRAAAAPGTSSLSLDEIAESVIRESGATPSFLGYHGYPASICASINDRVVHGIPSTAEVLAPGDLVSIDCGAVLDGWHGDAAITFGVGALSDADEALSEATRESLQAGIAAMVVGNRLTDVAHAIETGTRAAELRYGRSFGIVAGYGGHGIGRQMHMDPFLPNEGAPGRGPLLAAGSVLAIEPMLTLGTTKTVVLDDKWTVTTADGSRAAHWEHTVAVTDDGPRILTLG
Assay [3] deals with Replicating M. tuberculosis. Put plainly: Minimum inhibitory concentration in replicating M. tuberculosis culture. In kind it is cell-based, M. tuberculosis H37Rv.
Assay [4] concerns Aged-cultured (non-replicating) M. tuberculosis. Briefly: microbe, parasite or virus in culture. In kind it is cell-based, M. tuberculosis H37Ra. Conditions: Mycobacterium tuberculosis, read-out: M.I.C. Aged-cultured M. tuberculosis.

Chain of MtMetAP1c (P9WK18 whole entry): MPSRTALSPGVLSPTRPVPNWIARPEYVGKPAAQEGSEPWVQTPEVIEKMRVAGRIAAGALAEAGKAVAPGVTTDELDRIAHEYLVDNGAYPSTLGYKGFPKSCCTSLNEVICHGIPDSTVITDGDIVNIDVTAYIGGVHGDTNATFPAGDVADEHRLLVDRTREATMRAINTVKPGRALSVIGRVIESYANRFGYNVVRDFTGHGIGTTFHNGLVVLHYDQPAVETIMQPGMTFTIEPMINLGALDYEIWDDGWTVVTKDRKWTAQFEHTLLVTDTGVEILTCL

`O=C1C(Cl)=C(Cl)C(=O)c2ccccc21` [Compound 4, 2,3-dichloro-1,4-naphthoquinone]: the values for the IC50 in assay [1] and in assay [2] were 6.6 ± 1.2 µM and 3.3 ± 0.3 µM, respectively. Moreover, in assay [3], the “M.I.C. Replicating M. tuberculosis” value was found to be 10 µg/mL. Also, the MIC in assay [4] fell in the range of 5.7 to 11.4 µg/mL (≈ 25.1 to 50.2 µM).

Broadly, the IC50 is the point on the concentration scale where inhibition reaches its midpoint.
